From ChEMBL document CHEMBL3885881, “DrugMatrix”

Organism: Rattus norvegicus
Assay: DrugMatrix - Regimen: Daily Repeat
Type: toxicity, organism-based, Sprague-Dawley
Design: regimen Daily Repeat, gender Male, age 6-8 weeks
Details: in vivo, po, route oral GAVAGE; for BASOPHIL / EOSINOPHIL / ERYTHROCYTE COUNT / HEMATOCRIT / HEMOGLOBIN / LEUKOCYTE COUNT / LYMPHOCYTE / MEAN CORPUSCULAR HEMOGLOBIN / MEAN CORPUSCULAR HEMOGLOBIN CONCENTRATION / MEAN CORPUSCULAR VOLUME / MONOCYTE / NEUTROPHIL / NUCLEATED RED BLOOD CELLS / PLATELET COUNT / ABSOLUTE BASOPHIL / ABSOLUTE EOSINOPHIL / ABSOLUTE LYMPHOCYTE / ABSOLUTE MONOCYTE / ABSOLUTE SEGMENTED NEUTROPHIL: tissue Blood; for ALANINE AMINOTRANSFERASE / ALBUMIN / ALKALINE PHOSPHATASE / ASPARTATE AMINOTRANSFERASE / BLOOD UREA NITROGEN / CARBON DIOXIDE / CHLORIDE / CHOLESTEROL / CREATINE PHOSPHOKINASE / CREATININE / GLUCOSE / LACTATE DEHYDROGENASE / LIPASE / PHOSPHORUS / POTASSIUM / SODIUM / TOTAL BILIRUBIN / TOTAL PROTEIN / URIC ACID: tissue Plasma
[1] = 300 mg/kg, 120 h, dose level M2, time 5 day, vehicle 100 % SALINE
[2] = 420 mg/kg, 72 h, dose level High, time 3 day, vehicle 100 % WATER
[3] = 420 mg/kg, 120 h, dose level High, time 5 day, vehicle 100 % WATER
[4] = […], 72 h, dose 2.5 mg/Kg, dose level Low, time 3 day, vehicle 100 % WATER
[5] = […], 120 h, dose 2.5 mg/Kg, dose level Low, time 5 day, vehicle 100 % WATER

CCCc1nn(C)c2c(=O)[nH]c(-c3cc(S(=O)(=O)N4CCN(C)CC4)ccc3OCC)nc12
BASOPHIL [1]: 0%
EOSINOPHIL [1]: 0%
ERYTHROCYTE COUNT [1]: 5.43 x10E6/uL
HEMATOCRIT [1]: 35.43%
HEMOGLOBIN [1]: 14 G/DL
LEUKOCYTE COUNT [1]: 11.23 x10E3/uL
LYMPHOCYTE [1]: 91%
MEAN CORPUSCULAR HEMOGLOBIN [1]: 25.83 pg
MEAN CORPUSCULAR HEMOGLOBIN CONCENTRATION [1]: 39.53 G/DL
MEAN CORPUSCULAR VOLUME [1]: 65.33 fL
MONOCYTE [1]: 0%
NEUTROPHIL [1]: 9%
NUCLEATED RED BLOOD CELLS [1]: 0.67 /100WBC
PLATELET COUNT [1]: 1112.67 x10E3/uL
ALANINE AMINOTRANSFERASE [1]: 45 u/L
ALBUMIN [1]: 4.03 G/DL
ALKALINE PHOSPHATASE [1]: 344 u/L
ASPARTATE AMINOTRANSFERASE [1]: 70.33 u/L
BLOOD UREA NITROGEN [1]: 14.67 mg/dL
CARBON DIOXIDE [1]: 33 mmol/L
CHLORIDE [1]: 100.33 MEQ/L
CHOLESTEROL [1]: 70 mg/dL
CREATINE PHOSPHOKINASE [1]: 212 u/L
CREATININE [1]: 0.31 mg/dL
GLUCOSE [1]: 137.33 mg/dL
LACTATE DEHYDROGENASE [1]: 106 u/L
LIPASE [1]: 11.33 u/L
PHOSPHORUS [1]: 10.77 mg/dL
POTASSIUM [1]: 6.45 MEQ/L
SODIUM [1]: 146.53 MEQ/L
TOTAL BILIRUBIN [1]: 0.2 mg/dL
TOTAL PROTEIN [1]: 5.43 G/DL
URIC ACID [1]: 0.73 mg/dL
ABSOLUTE BASOPHIL [2]: 0 CELLS/uL
ABSOLUTE EOSINOPHIL [2]: 0 CELLS/uL
ABSOLUTE LYMPHOCYTE [2]: 12448.33 CELLS/uL
ABSOLUTE MONOCYTE [2]: 74 CELLS/uL
ABSOLUTE SEGMENTED NEUTROPHIL [2]: 877.67 CELLS/uL
BASOPHIL [2]: 0%
EOSINOPHIL [2]: 0%
ERYTHROCYTE COUNT [2]: 5.64 x10E6/uL
HEMATOCRIT [2]: 35.27%
HEMOGLOBIN [2]: 13.43 G/DL
LEUKOCYTE COUNT [2]: 13.4 x10E3/uL
LYMPHOCYTE [2]: 92.33%
MEAN CORPUSCULAR HEMOGLOBIN [2]: 23.8 pg
MEAN CORPUSCULAR HEMOGLOBIN CONCENTRATION [2]: 38.1 G/DL
MEAN CORPUSCULAR VOLUME [2]: 62.57 fL
MONOCYTE [2]: 0.67%
NEUTROPHIL [2]: 7%
NUCLEATED RED BLOOD CELLS [2]: 0 /100WBC
PLATELET COUNT [2]: 944.33 x10E3/uL
ALANINE AMINOTRANSFERASE [2]: 41.67 u/L
ALBUMIN [2]: 3.77 G/DL
ALKALINE PHOSPHATASE [2]: 304 u/L
ASPARTATE AMINOTRANSFERASE [2]: 72.67 u/L
BLOOD UREA NITROGEN [2]: 16.33 mg/dL
CARBON DIOXIDE [2]: 30.33 mmol/L
CHLORIDE [2]: 102.33 MEQ/L
CHOLESTEROL [2]: 79.67 mg/dL
CREATINE PHOSPHOKINASE [2]: 170 u/L
CREATININE [2]: 0.14 mg/dL
GLUCOSE [2]: 148 mg/dL
LACTATE DEHYDROGENASE [2]: 130.33 u/L
LIPASE [2]: 9.67 u/L
PHOSPHORUS [2]: 8.4 mg/dL
POTASSIUM [2]: 5.71 MEQ/L
SODIUM [2]: 146.4 MEQ/L
TOTAL BILIRUBIN [2]: 0.23 mg/dL
TOTAL PROTEIN [2]: 5.6 G/DL
URIC ACID [2]: 0.5 mg/dL
ABSOLUTE BASOPHIL [3]: 0 CELLS/uL
ABSOLUTE EOSINOPHIL [3]: 0 CELLS/uL
ABSOLUTE LYMPHOCYTE [3]: 8874.67 CELLS/uL
ABSOLUTE MONOCYTE [3]: 36 CELLS/uL
ABSOLUTE SEGMENTED NEUTROPHIL [3]: 756 CELLS/uL
BASOPHIL [3]: 0%
EOSINOPHIL [3]: 0%
ERYTHROCYTE COUNT [3]: 5.05 x10E6/uL
HEMATOCRIT [3]: 32.73%
HEMOGLOBIN [3]: 12.9 G/DL
LEUKOCYTE COUNT [3]: 9.67 x10E3/uL
LYMPHOCYTE [3]: 91.67%
MEAN CORPUSCULAR HEMOGLOBIN [3]: 25.53 pg
MEAN CORPUSCULAR HEMOGLOBIN CONCENTRATION [3]: 39.4 G/DL
MEAN CORPUSCULAR VOLUME [3]: 64.8 fL
MONOCYTE [3]: 0.33%
NEUTROPHIL [3]: 8%
NUCLEATED RED BLOOD CELLS [3]: 0 /100WBC
PLATELET COUNT [3]: 1090.67 x10E3/uL
ALANINE AMINOTRANSFERASE [3]: 33.67 u/L
ALBUMIN [3]: 3.67 G/DL
ALKALINE PHOSPHATASE [3]: 232 u/L
ASPARTATE AMINOTRANSFERASE [3]: 57 u/L
BLOOD UREA NITROGEN [3]: 15.67 mg/dL
CARBON DIOXIDE [3]: 33.67 mmol/L
CHLORIDE [3]: 99 MEQ/L
CHOLESTEROL [3]: 77.67 mg/dL
CREATINE PHOSPHOKINASE [3]: 155 u/L
CREATININE [3]: 0.11 mg/dL
GLUCOSE [3]: 144.67 mg/dL
LACTATE DEHYDROGENASE [3]: 100 u/L
LIPASE [3]: 10 u/L
PHOSPHORUS [3]: 10.2 mg/dL
POTASSIUM [3]: 5.99 MEQ/L
SODIUM [3]: 146.03 MEQ/L
TOTAL BILIRUBIN [3]: 0.17 mg/dL
TOTAL PROTEIN [3]: 5.83 G/DL
URIC ACID [3]: 0.63 mg/dL
ABSOLUTE BASOPHIL [4]: 0 CELLS/uL
ABSOLUTE EOSINOPHIL [4]: 0 CELLS/uL
ABSOLUTE LYMPHOCYTE [4]: 7128 CELLS/uL
ABSOLUTE MONOCYTE [4]: 81 CELLS/uL
ABSOLUTE SEGMENTED NEUTROPHIL [4]: 891 CELLS/uL
BASOPHIL [4]: 0%
EOSINOPHIL [4]: 0%
ERYTHROCYTE COUNT [4]: 5.44 x10E6/uL
HEMATOCRIT [4]: 34.27%
HEMOGLOBIN [4]: 13.2 G/DL
LEUKOCYTE COUNT [4]: 8.1 x10E3/uL
LYMPHOCYTE [4]: 88%
MEAN CORPUSCULAR HEMOGLOBIN [4]: 24.4 pg
MEAN CORPUSCULAR HEMOGLOBIN CONCENTRATION [4]: 38.53 G/DL
MEAN CORPUSCULAR VOLUME [4]: 63.23 fL
MONOCYTE [4]: 1%
NEUTROPHIL [4]: 11%
NUCLEATED RED BLOOD CELLS [4]: 0.33 /100WBC
PLATELET COUNT [4]: 1027 x10E3/uL
ALANINE AMINOTRANSFERASE [4]: 61 u/L
ALBUMIN [4]: 4.03 G/DL
ALKALINE PHOSPHATASE [4]: 377.33 u/L
ASPARTATE AMINOTRANSFERASE [4]: 87.33 u/L
BLOOD UREA NITROGEN [4]: 16 mg/dL
CARBON DIOXIDE [4]: 29.33 mmol/L
CHLORIDE [4]: 101.67 MEQ/L
CHOLESTEROL [4]: 61 mg/dL
CREATINE PHOSPHOKINASE [4]: 188.67 u/L
CREATININE [4]: 0.1 mg/dL
GLUCOSE [4]: 163 mg/dL
LACTATE DEHYDROGENASE [4]: 107.67 u/L
LIPASE [4]: 8.33 u/L
PHOSPHORUS [4]: 9.57 mg/dL
POTASSIUM [4]: 5.88 MEQ/L
SODIUM [4]: 147.5 MEQ/L
TOTAL BILIRUBIN [4]: 0.17 mg/dL
TOTAL PROTEIN [4]: 5.97 G/DL
URIC ACID [4]: 0.63 mg/dL
ABSOLUTE BASOPHIL [5]: 0 CELLS/uL
ABSOLUTE EOSINOPHIL [5]: 0 CELLS/uL
ABSOLUTE LYMPHOCYTE [5]: 7975.33 CELLS/uL
ABSOLUTE MONOCYTE [5]: 0 CELLS/uL
ABSOLUTE SEGMENTED NEUTROPHIL [5]: 658 CELLS/uL
BASOPHIL [5]: 0%
EOSINOPHIL [5]: 0%
ERYTHROCYTE COUNT [5]: 5.39 x10E6/uL
HEMATOCRIT [5]: 34.73%
HEMOGLOBIN [5]: 14 G/DL
LEUKOCYTE COUNT [5]: 8.63 x10E3/uL
LYMPHOCYTE [5]: 92%
MEAN CORPUSCULAR HEMOGLOBIN [5]: 26 pg
MEAN CORPUSCULAR HEMOGLOBIN CONCENTRATION [5]: 40.3 G/DL
MEAN CORPUSCULAR VOLUME [5]: 64.5 fL
MONOCYTE [5]: 0%
NEUTROPHIL [5]: 8%
NUCLEATED RED BLOOD CELLS [5]: 0.33 /100WBC
PLATELET COUNT [5]: 629.67 x10E3/uL
ALANINE AMINOTRANSFERASE [5]: 49.67 u/L
ALBUMIN [5]: 4.27 G/DL
ALKALINE PHOSPHATASE [5]: 363.67 u/L
ASPARTATE AMINOTRANSFERASE [5]: 76 u/L
BLOOD UREA NITROGEN [5]: 14.33 mg/dL
CARBON DIOXIDE [5]: 32 mmol/L
CHLORIDE [5]: 98.67 MEQ/L
CHOLESTEROL [5]: 77 mg/dL
CREATINE PHOSPHOKINASE [5]: 203.33 u/L
CREATININE [5]: 0.13 mg/dL
GLUCOSE [5]: 145.33 mg/dL
LACTATE DEHYDROGENASE [5]: 120 u/L
LIPASE [5]: 9.33 u/L
PHOSPHORUS [5]: 11.67 mg/dL
POTASSIUM [5]: 6.39 MEQ/L
SODIUM [5]: 144.5 MEQ/L
TOTAL BILIRUBIN [5]: 0.2 mg/dL
TOTAL PROTEIN [5]: 6.3 G/DL
URIC ACID [5]: 0.87 mg/dL
